Columns and labels:
Assay in all cases: Greenhouse herbicidal activity assay, post-emergence
Format in all cases: in vivo
Settings in all cases: Post-emergence test, rate 150 g a.i./hm^2, grade by fresh weight inhibition rate
Cyperus iria = tested on: Cyperus iria
In short: (§1)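 Foliar spray at 3-6 leaves; pot-grown in nutrient soil in growth chamber; air-dried post-spray. Read-out at 14-21 d: fresh weight inhibition, graded A (≥80% to 100%) down to E (<20%); NT = not tested.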

Leptochloa chinensis = tested on: Leptochloa chinensis
In short: as §1

Eclipta prostrata = tested on: Eclipta prostrata
In short: as §1

Digitaria sanguinalis = tested on: Digitaria sanguinalis
In short: as §1

Echinochloa crusgalli = tested on: Echinochloa crusgalli
In short: as §1

| Compound | Control efficacy grade, Cyperus iria (Cyperus iria) | Control efficacy grade, Leptochloa chinensis (Leptochloa chinensis) | Control efficacy grade, Eclipta prostrata (Eclipta prostrata) | Control efficacy grade, Digitaria sanguinalis (Digitaria sanguinalis) | Control efficacy grade, Echinochloa crusgalli (Echinochloa crusgalli) | pest or weed control at 150 g/ha (Cyperus iria; Cyperus iria, read-out: Control efficacy grade, Cyperus iria) [%] | pest or weed control at 150 g/ha (Leptochloa chinensis; Dinebra chinensis, read-out: Control efficacy grade, Leptochloa chinensis) [%] | pest or weed control at 150 g/ha (Eclipta prostrata; Eclipta prostrata, read-out: Control efficacy grade, Eclipta prostrata) [%] | pest or weed control at 150 g/ha (Digitaria sanguinalis; Digitaria sanguinalis, read-out: Control efficacy grade, Digitaria sanguinalis) [%] | pest or weed control at 150 g/ha (Echinochloa crusgalli; Echinochloa crus-galli, read-out: Control efficacy grade, Echinochloa crusgalli) [%] |
| --- | --- | --- | --- | --- | --- | --- | --- | --- | --- | --- |
| Cc1nnc(NC(=O)c2ccc(S(C)(=O)=O)c(SCC3CC3)c2Cl)o1 [Compound 3-37] | A (Fresh weight inhibition rate≥80% to 100%) | A (Fresh weight inhibition rate≥80% to 100%) | A (Fresh weight inhibition rate≥80% to 100%) | A (Fresh weight inhibition rate≥80% to 100%) | A (Fresh weight inhibition rate≥80% to 100%) | – | – | – | – | – |
| Cc1nonc1NC(=O)c1ccc(S(C)(=O)=O)c([S+]([O-])C2CC2)c1Cl (racemic) [Compound 4-38] | A (Fresh weight inhibition rate≥80% to 100%) | A (Fresh weight inhibition rate≥80% to 100%) | A (Fresh weight inhibition rate≥80% to 100%) | A (Fresh weight inhibition rate≥80% to 100%) | A (Fresh weight inhibition rate≥80% to 100%) | – | – | – | – | – |
| CS(=O)(=O)c1ccc(C(=O)Nc2nnco2)c(Cl)c1SC1CCC1 [Compound 3-308] | A (Fresh weight inhibition rate≥80% to 100%) | A (Fresh weight inhibition rate≥80% to 100%) | A (Fresh weight inhibition rate≥80% to 100%) | A (Fresh weight inhibition rate≥80% to 100%) | A (Fresh weight inhibition rate≥80% to 100%) | – | – | – | – | – |
| Cn1nnnc1NC(=O)c1ccc(S(C)(=O)=O)c([S+]([O-])CC#N)c1Cl (racemic) [Compound 1-63] | A (Fresh weight inhibition rate≥80% to 100%) | A (Fresh weight inhibition rate≥80% to 100%) | A (Fresh weight inhibition rate≥80% to 100%) | B (Fresh weight inhibition rate≥260% to <80%) | A (Fresh weight inhibition rate≥80% to 100%) | – | – | – | – | – |
| Cc1nnc(NC(=O)c2ccc(S(C)(=O)=O)c(SCC(F)(F)F)c2Cl)o1 [Compound 3-97] | A (Fresh weight inhibition rate≥80% to 100%) | A (Fresh weight inhibition rate≥80% to 100%) | A (Fresh weight inhibition rate≥80% to 100%) | A (Fresh weight inhibition rate≥80% to 100%) | A (Fresh weight inhibition rate≥80% to 100%) | – | – | – | – | – |
| Cc1nnc(NC(=O)c2ccc(S(C)(=O)=O)c([S+]([O-])C3CCCCC3)c2Cl)o1 (racemic) [Compound 3-93] | A (Fresh weight inhibition rate≥80% to 100%) | A (Fresh weight inhibition rate≥80% to 100%) | A (Fresh weight inhibition rate≥80% to 100%) | A (Fresh weight inhibition rate≥80% to 100%) | A (Fresh weight inhibition rate≥80% to 100%) | – | – | – | – | – |
| Cn1ncnc1NC(=O)c1ccc(S(C)(=O)=O)c([S+]([O-])C2CC2)c1Cl (racemic) [Compound 2-33] | A (Fresh weight inhibition rate≥80% to 100%) | A (Fresh weight inhibition rate≥80% to 100%) | A (Fresh weight inhibition rate≥80% to 100%) | A (Fresh weight inhibition rate≥80% to 100%) | A (Fresh weight inhibition rate≥80% to 100%) | – | – | – | – | – |
| CS(=O)(=O)c1ccc(C(=O)Nc2nnco2)c(Cl)c1SCC(F)F [Compound 3-328] | A (Fresh weight inhibition rate≥80% to 100%) | A (Fresh weight inhibition rate≥80% to 100%) | A (Fresh weight inhibition rate≥80% to 100%) | A (Fresh weight inhibition rate≥80% to 100%) | A (Fresh weight inhibition rate≥80% to 100%) | – | – | – | – | – |
| COCSc1c(S(C)(=O)=O)ccc(C(=O)Nc2nnc(C)o2)c1Cl [Compound 3-262] | A (Fresh weight inhibition rate≥80% to 100%) | A (Fresh weight inhibition rate≥80% to 100%) | A (Fresh weight inhibition rate≥80% to 100%) | A (Fresh weight inhibition rate≥80% to 100%) | A (Fresh weight inhibition rate≥80% to 100%) | – | – | – | – | – |
| CCCC[S+]([O-])c1c(S(C)(=O)=O)ccc(C(=O)Nc2nnnn2C)c1Cl (racemic) [Compound 1-12] | A (Fresh weight inhibition rate≥80% to 100%) | A (Fresh weight inhibition rate≥80% to 100%) | A (Fresh weight inhibition rate≥80% to 100%) | A (Fresh weight inhibition rate≥80% to 100%) | A (Fresh weight inhibition rate≥80% to 100%) | – | – | – | – | – |
| CCC[S+]([O-])c1c(S(C)(=O)=O)ccc(C(=O)Nc2nnnn2C)c1Cl (single isomer, unassigned) [Compound 1-4] | A (Fresh weight inhibition rate≥80% to 100%) | A (Fresh weight inhibition rate≥80% to 100%) | A (Fresh weight inhibition rate≥80% to 100%) | A (Fresh weight inhibition rate≥80% to 100%) | A (Fresh weight inhibition rate≥80% to 100%) | – | – | – | – | – |
| CS(=O)(=O)c1ccc(C(=O)Nc2nnc(C3CC3)o2)c(Cl)c1[S+]([O-])CC1CC1 (racemic) [Compound 3-647] | A (Fresh weight inhibition rate≥80% to 100%) | A (Fresh weight inhibition rate≥80% to 100%) | A (Fresh weight inhibition rate≥80% to 100%) | A (Fresh weight inhibition rate≥80% to 100%) | A (Fresh weight inhibition rate≥80% to 100%) | – | – | – | – | – |
| Cc1nnc(NC(=O)c2ccc(S(C)(=O)=O)c([S+]([O-])C(C)C)c2Cl)o1 (centres unmarked) [Compound 3-7, 2-chloro-3-(isopropylsulfinyl)-N-(5-methyl-1,3,4-oxadiazol-2-yl)-4-(methylsulfonyl)benzamide] | – | – | – | – | – | 80 to 100 | 80 to 100 | 80 to 100 | 80 to 100 | 80 to 100 |
| C=CC[S+]([O-])c1c(S(C)(=O)=O)ccc(C(=O)Nc2nnco2)c1Cl (racemic) [Compound 3-339] | A (Fresh weight inhibition rate≥80% to 100%) | A (Fresh weight inhibition rate≥80% to 100%) | A (Fresh weight inhibition rate≥80% to 100%) | A (Fresh weight inhibition rate≥80% to 100%) | A (Fresh weight inhibition rate≥80% to 100%) | – | – | – | – | – |
| Cn1ncnc1NC(=O)c1ccc(S(C)(=O)=O)c(SC2CCC2)c1Cl [Compound 2-37] | A (Fresh weight inhibition rate≥80% to 100%) | A (Fresh weight inhibition rate≥80% to 100%) | A (Fresh weight inhibition rate≥80% to 100%) | B (Fresh weight inhibition rate≥260% to <80%) | A (Fresh weight inhibition rate≥80% to 100%) | – | – | – | – | – |
| Cc1nnc(NC(=O)c2ccc(S(C)(=O)=O)c(SCCC(C)C)c2Cl)o1 [Compound 3-52] | A (Fresh weight inhibition rate≥80% to 100%) | A (Fresh weight inhibition rate≥80% to 100%) | A (Fresh weight inhibition rate≥80% to 100%) | B (Fresh weight inhibition rate≥260% to <80%) | B (Fresh weight inhibition rate≥260% to <80%) | – | – | – | – | – |
| C=CC[S+]([O-])c1c(S(C)(=O)=O)ccc(C(=O)Nc2ncnn2C)c1Cl (racemic) [Compound 2-68] | A (Fresh weight inhibition rate≥80% to 100%) | A (Fresh weight inhibition rate≥80% to 100%) | A (Fresh weight inhibition rate≥80% to 100%) | A (Fresh weight inhibition rate≥80% to 100%) | A (Fresh weight inhibition rate≥80% to 100%) | – | – | – | – | – |
| Cn1ncnc1NC(=O)c1ccc(S(C)(=O)=O)c(SCC2CC2)c1Cl [Compound 2-27] | A (Fresh weight inhibition rate≥80% to 100%) | A (Fresh weight inhibition rate≥80% to 100%) | A (Fresh weight inhibition rate≥80% to 100%) | A (Fresh weight inhibition rate≥80% to 100%) | A (Fresh weight inhibition rate≥80% to 100%) | – | – | – | – | – |
| CS(=O)(=O)c1ccc(C(=O)Nc2nnco2)c(Cl)c1SCC1CC1 [Compound 3-298] | A (Fresh weight inhibition rate≥80% to 100%) | A (Fresh weight inhibition rate≥80% to 100%) | A (Fresh weight inhibition rate≥80% to 100%) | A (Fresh weight inhibition rate≥80% to 100%) | A (Fresh weight inhibition rate≥80% to 100%) | – | – | – | – | – |
